{
  "source": "patent US20180370922A1",
  "about": "“ANTI-INFLAMMATORY 6-PHENOXYPYRIMIDINE DERIVATIVES, PROCESS FOR THEIR PREPARATION AND PHARMACEUTICAL COMPOSITION CONTAINING THEM” (priority 2017, published 2018)",
  "key": {"[1]": {"tested_on": "LPS-induced NO production in RAW 264.7 macrophages", "assay": "Measurement of nitrite (Griess test) as a measure of NO production", "format": "cell-based, murine", "conditions": "FIG. 2", "method": "The concentration of nitrite accumulated in the culture medium was measured by the Griess test as a measure of nitric oxide (NO) production. L-NIL was used as the positive control."}, "[2]": {"tested_on": "LPS-induced PEG2 production", "assay": "Measurement of PEG2 production", "format": "cell-based", "conditions": "FIG. 3"}, "iNOS mRNA": {"tested_on": "iNOS mRNA", "assay": "iNOS mRNA expression level", "format": "cell-based", "conditions": "FIG. 5A", "method": "Western blotting was conducted to identify the mechanism of the NO and PGE2 production inhibiting activity of the compound of the present invention. The inhibition of iNOS and COX-2 protein production and mRNA upregulation was tested."}, "TNF-α": {"tested_on": "TNF-α", "assay": "Cytokine production inhibiting activity, TNF-α", "format": "cell-based", "conditions": "at a concentration of 12 μM, FIG. 6", "method": "(§1) The inhibitory activity for the proinflammatory cytokines TNF-α, IL-1β and IL-6 was tested for the compound of the present invention."}, "IL-6": {"tested_on": "IL-6", "assay": "Cytokine production inhibiting activity, IL-6", "format": "cell-based", "conditions": "at a concentration of 12 μM, FIG. 6", "method": "as §1"}},
  "data": [
    {"smiles": "COc1ccc(Oc2nc(Nc3ccc(N4CCOCC4)cc3)ncc2/N=C/c2cc(OC)cc(OC)c2)cc1", "note": "[Example 21, (E)-5-((3,5-dimethoxybenzylidene)amino)-4-(4-methoxyphenoxy)-N-(4-morpholinophenyl)pyrimidin-2-amine]", "values": [
      {"measurement": "inhibition of LPS-induced NO production", "setting": "[1]; RAW 264.7 macrophages, LPS 24 hours, Griess test", "value": "inhibit LPS-induced NO production in a dose-dependent manner"},
      {"measurement": "NO inhibitory activity as compared to the positive control L-NIL", "setting": "[1]; relative to L-NIL", "value": 2, "unit": "times"},
      {"measurement": "inhibition of LPS-induced PEG2 production", "setting": "[2]", "value": "inhibit LPS-induced PEG2 production in a dose-dependent manner"},
      {"measurement": "inhibition of LPS-induced upregulation of iNOS mRNA", "setting": "iNOS mRNA", "value": "inhibit LPS-induced upregulation of iNOS mRNA"},
      {"measurement": "inhibition of TNF-α production", "setting": "TNF-α", "value": "inhibit the production of TNF-α"},
      {"measurement": "inhibition of IL-6 production", "setting": "IL-6", "value": "inhibit the production of TNF-α and IL-6"},
      {"measurement": "cell viability (toxicity)", "setting": "RAW 264.7 macrophages", "value": "little toxicity"}
    ]}
  ]
}
